Data taken from ChEMBL document CHEMBL1201862, “PubChem BioAssay data set” (2004).
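Results reflect a 48-hour exposure of cells in 96-well plates to compound at five concentrations. GI50: concentration for 50% inhibition of growth.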 Active and inactive are the calls of the source. No stated cut-off is given here; in the data, active = GI50 up to about 1.1 µM and inactive = higher.

What was measured:
Assay in all cases: NCI tumour cell line growth inhibition, 48 h
[1] = tested on: PC-3
[2] = tested on: ACHN
[3] = tested on: OVCAR-5
[4] = tested on: Hs-578T
[5] = tested on: NCI-H460
[6] = tested on: SF-295
[7] = tested on: HCT-15
[8] = tested on: COLO 205
[9] = tested on: HT-29
[10] = tested on: 786-0
[11] = tested on: M14
[12] = tested on: UACC-62
[13] = tested on: IGROV-1
[14] = tested on: SW-620
[15] = tested on: CAKI-1
[16] = tested on: DU-145
[17] = tested on: SN12C
[18] = tested on: NCI-H522
[19] = tested on: MDA-N
[20] = tested on: SK-MEL-28
[21] = tested on: HOP-62
[22] = tested on: HCT-116
[23] = tested on: OVCAR-3
[24] = tested on: NCI-H226
[25] = tested on: NCI-H23
[26] = tested on: UO-31
[27] = tested on: OVCAR-4
[28] = tested on: MDA-MB-435
[29] = tested on: SNB-75
[30] = tested on: SK-MEL-2
[31] = tested on: A549
[32] = tested on: KM12
[33] = tested on: EKVX
[34] = tested on: MOLT-4
[35] = tested on: A498
[36] = tested on: SF-268
[37] = tested on: TK-10
[38] = tested on: K562
[39] = tested on: U-251
[40] = tested on: HCC 2998
[41] = tested on: LOX IMVI
[42] = tested on: SR
[43] = tested on: T47D
[44] = tested on: SNB-19
[45] = tested on: SF-539
[46] = tested on: RPMI-8226
[47] = tested on: RXF 393
[48] = tested on: SK-MEL-5
[49] = tested on: OVCAR-8
[50] = tested on: NCI/ADR-RES
[51] = tested on: MCF7
[52] = tested on: SK-OV-3
[53] = tested on: BT-549
[54] = tested on: UACC-257
[55] = tested on: HOP-92
[56] = tested on: Malme-3M
[57] = tested on: CCRF-CEM
[58] = tested on: HL-60
[59] = tested on: MDA-MB-231

Cc1cccc(/C=N/NC(=S)Nc2ccccc2)n1
GI50 [1]: 6 µM (inactive) | GI50 [2]: 2.6 µM (inactive) | GI50 [3]: 5.85 µM (inactive) | GI50 [4]: 20.1 µM (inactive) | GI50 [5]: 1.57 µM (inactive) | GI50 [6]: 6.3 µM (inactive) | GI50 [7]: 1.98 µM | GI50 [8]: 2.75 µM (inactive) | GI50 [9]: 3.17 µM (inactive) | GI50 [10]: 2.27 µM (inactive) | GI50 [11]: 2.49 µM (inactive) | GI50 [12]: 3.68 µM (inactive) | GI50 [13]: 2.84 µM (inactive) | GI50 [14]: 5.25 µM (inactive) | GI50 [15]: 5.19 µM (inactive) | GI50 [16]: 4.18 µM (inactive) | GI50 [17]: 2.8 µM (inactive) | GI50 [18]: 1.48 µM (inactive) | GI50 [19]: 4 µM (inactive) | GI50 [20]: 12.2 µM (inactive) | GI50 [21]: 2.93 µM (inactive) | GI50 [22]: 3.47 µM (inactive) | GI50 [23]: 1.97 µM (inactive) | GI50 [24]: 6.37 µM (inactive) | GI50 [25]: 6.18 µM (inactive) | GI50 [26]: 3.43 µM (inactive) | GI50 [27]: 6.31 µM (inactive) | GI50 [28]: 7.6 µM (inactive) | GI50 [29]: 3.67 µM (inactive) | GI50 [30]: 3.2 µM (inactive) | GI50 [31]: 5.61 µM (inactive) | GI50 [32]: 4.72 µM (inactive) | GI50 [33]: 5.97 µM (inactive) | GI50 [34]: 3.27 µM (inactive) | GI50 [35]: 15.3 µM (inactive) | GI50 [36]: 3.31 µM (inactive) | GI50 [37]: 2.43 µM (inactive) | GI50 [38]: 4.1 µM (inactive) | GI50 [39]: 4.32 µM (inactive) | GI50 [40]: 5.64 µM (inactive) | GI50 [41]: 2.67 µM (inactive) | GI50 [42]: 16.6 µM (inactive) | GI50 [43]: 2.84 µM (inactive) | GI50 [44]: 11.9 µM (inactive) | GI50 [45]: 2.89 µM (inactive) | GI50 [46]: 3.48 µM (inactive) | GI50 [47]: 5.48 µM (inactive) | GI50 [48]: 3.08 µM (inactive) | GI50 [49]: 2.43 µM (inactive) | GI50 [50]: 2.88 µM (inactive) | GI50 [51]: 2.89 µM (inactive) | GI50 [52]: 9.53 µM (inactive) | GI50 [53]: 7.53 µM (inactive) | GI50 [54]: 1.82 µM (inactive) | GI50 [55]: 5.15 µM (inactive) | GI50 [56]: 5.04 µM (inactive)

c1ccc2c(c1)nc1ccccn12
GI50 [1]: > 100 µM (inactive) | GI50 [2]: > 100 µM (inactive) | GI50 [3]: > 100 µM (inactive) | GI50 [4]: 33.6 µM (inactive) | GI50 [5]: > 100 µM (inactive) | GI50 [6]: > 100 µM (inactive) | GI50 [7]: > 100 µM | GI50 [8]: > 100 µM (inactive) | GI50 [9]: > 100 µM (inactive) | GI50 [10]: > 100 µM (inactive) | GI50 [11]: > 100 µM (inactive) | GI50 [12]: > 100 µM (inactive) | GI50 [13]: > 100 µM (inactive) | GI50 [14]: > 100 µM (inactive) | GI50 [16]: > 100 µM (inactive) | GI50 [17]: > 100 µM (inactive) | GI50 [19]: > 100 µM (inactive) | GI50 [20]: > 100 µM (inactive) | GI50 [21]: > 100 µM (inactive) | GI50 [22]: > 100 µM (inactive) | GI50 [23]: > 100 µM (inactive) | GI50 [24]: > 100 µM (inactive) | GI50 [25]: > 100 µM (inactive) | GI50 [26]: > 100 µM (inactive) | GI50 [28]: > 100 µM (inactive) | GI50 [29]: > 100 µM (inactive) | GI50 [31]: > 100 µM (inactive) | GI50 [32]: > 100 µM (inactive) | GI50 [33]: > 100 µM (inactive) | GI50 [34]: > 100 µM (inactive) | GI50 [35]: 1.37 µM (inactive) | GI50 [36]: > 100 µM (inactive) | GI50 [57]: > 100 µM (inactive) | GI50 [37]: > 100 µM (inactive) | GI50 [38]: > 100 µM (inactive) | GI50 [39]: > 100 µM (inactive) | GI50 [40]: > 100 µM (inactive) | GI50 [42]: > 100 µM (inactive) | GI50 [43]: > 100 µM (inactive) | GI50 [44]: > 100 µM (inactive) | GI50 [45]: > 100 µM (inactive) | GI50 [58]: > 100 µM (inactive) | GI50 [46]: > 100 µM (inactive) | GI50 [47]: > 100 µM (inactive) | GI50 [48]: > 100 µM (inactive) | GI50 [49]: > 100 µM (inactive) | GI50 [50]: > 100 µM (inactive) | GI50 [51]: > 100 µM (inactive) | GI50 [52]: > 100 µM (inactive) | GI50 [53]: > 100 µM (inactive) | GI50 [54]: > 100 µM (inactive) | GI50 [55]: > 100 µM (inactive) | GI50 [56]: > 100 µM (inactive)

CCCCC(O)(c1ccccc1)C(O)(c1ccccc1)c1c(F)c(F)c(F)c(F)c1F (stereo not given)
GI50 [1]: 19.1 µM (inactive) | GI50 [2]: 19.6 µM (inactive) | GI50 [3]: 18.3 µM (inactive) | GI50 [5]: 23.7 µM (inactive) | GI50 [6]: > 10 µM (inactive) | GI50 [7]: 13.5 µM | GI50 [8]: > 10 µM (inactive) | GI50 [9]: 14.1 µM (inactive) | GI50 [10]: 20.1 µM (inactive) | GI50 [11]: 30.3 µM (inactive) | GI50 [12]: 17.4 µM (inactive) | GI50 [13]: 33.3 µM (inactive) | GI50 [14]: 25.2 µM (inactive) | GI50 [16]: 48.1 µM (inactive) | GI50 [17]: 17.1 µM (inactive) | GI50 [19]: 17.9 µM (inactive) | GI50 [20]: 27 µM (inactive) | GI50 [21]: 17.5 µM (inactive) | GI50 [22]: 18.1 µM (inactive) | GI50 [59]: 16 µM (inactive) | GI50 [23]: 17.4 µM (inactive) | GI50 [24]: 26 µM (inactive) | GI50 [25]: 29 µM (inactive) | GI50 [26]: 30.3 µM (inactive) | GI50 [27]: 44.4 µM (inactive) | GI50 [28]: 31.8 µM (inactive) | GI50 [29]: 37.2 µM (inactive) | GI50 [31]: 28.4 µM (inactive) | GI50 [33]: 17.9 µM (inactive) | GI50 [34]: 16.8 µM (inactive) | GI50 [35]: 25.5 µM (inactive) | GI50 [36]: 20 µM (inactive) | GI50 [57]: 25.4 µM (inactive) | GI50 [37]: 26.4 µM (inactive) | GI50 [38]: 27.4 µM (inactive) | GI50 [39]: 17.3 µM (inactive) | GI50 [40]: 15.7 µM (inactive) | GI50 [42]: 25.3 µM (inactive) | GI50 [43]: 35.4 µM (inactive) | GI50 [44]: 41.8 µM (inactive) | GI50 [58]: 21.3 µM (inactive) | GI50 [46]: 18.2 µM (inactive) | GI50 [48]: 18.4 µM (inactive) | GI50 [49]: 22.1 µM (inactive) | GI50 [50]: 19.5 µM (inactive) | GI50 [51]: 20.3 µM (inactive) | GI50 [52]: 21.5 µM (inactive) | GI50 [53]: 33.3 µM (inactive) | GI50 [54]: 18.2 µM (inactive) | GI50 [55]: 17.4 µM (inactive) | GI50 [56]: 16.7 µM (inactive)
